US11040028B2, “Penicinotam derivative, preparation method and use thereof” (OCEAN UNIVERSITY OF CHINA, priority 2017, dated 2021)
Like-named read-outs stand apart in the source and are kept apart here.

Legend:
Assay type in all cases: cell-based
BHK-21 cells = test: Anti-fibrosis activity test: inhibition of BHK-21 cell proliferation (CCK-8); settings: Mesocricetus auratus, BHK-21, 48 h
In short: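 Proliferation of BHK-21 cells is measured by CCK-8 at 450 nm following 48 h compound exposure at several concentrations. Inhibition is expressed relative to blank control and IC50 is computed from it.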

[1] = tested on: human lung fibroblasts HFL1; test: Anti-fibrosis activity test: inhibition of proliferation of human lung fibroblasts HFL1 (CCK-8); settings: Homo sapiens, HFL1, 48 h
In short: (§1)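 A CCK-8 proliferation assay was run: cells at 2×10^4 cells/mL, adherent for 24 h, then incubated 48 h at 37° C with compound dilutions. A450 was recorded 2 h after CCK-8 addition and converted to percent inhibition versus blank for IC50 determination.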

[2] = tested on: human hepatic stellate cells LX-2; test: Anti-fibrosis activity test: inhibition of proliferation of human hepatic stellate cells LX-2 (CCK-8); settings: Homo sapiens, 48 h
In short: as §1

[3] = tested on: human fibrosarcoma cells HT-1080; test: Anti-fibrosis activity test: inhibition of proliferation of human fibrosarcoma cells HT-1080 (CCK-8)
In short: as §1

[4] = tested on: human dermal fibroblasts CCC-ESF-1; test: Anti-fibrosis activity test: inhibition of proliferation of human dermal fibroblasts CCC-ESF-1 (CCK-8); settings: Fibroblast
In short: as §1

[5] = tested on: human embryonic lung fibroblast IMR-90; test: Anti-fibrosis activity test: inhibition of proliferation of human embryonic lung fibroblast IMR-90 (CCK-8)
In short: as §1

[6] = tested on: cardiac fibroblast RAT-iCell-C002; test: Anti-fibrosis activity test: inhibition of proliferation of cardiac fibroblast RAT-iCell-C002 (CCK-8); settings: Cardiac fibroblast, 48 h
In short: as §1

[7] = tested on: mouse macrophages (RAW264.7); test: Lipopolysaccharide-induced NO secretion in macrophages (Griess); settings: RAW264.7, LPS 1 μg/ml, a/b isomers given as first/second symbol, read-out: IC50 (μM), inhibition of lipopolysaccharide-induced NO secretion in macrophages
In short: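 Absorbance at 548 nm after Griess reagent addition to culture supernatant gave NO content; inhibition rate was derived relative to blank control. Cells were mouse RAW264.7 macrophages exposed to compounds and 1 μg/ml LPS for 24 hours.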

[8] = CCK-8, 48 hours after administration
[9] = human lung fibroblasts HFL1, CCK-8, 48 hours
[10] = human hepatic stellate cells LX-2, CCK-8, 48 hours
[11] = Homo sapiens, HT-1080, 48 h, human fibrosarcoma cells HT-1080, CCK-8, 48 hours
[12] = human dermal fibroblasts CCC-ESF-1, CCK-8, 48 hours
[13] = human embryonic lung fibroblast IMR-90, CCK-8, 48 hours
[14] = cardiac fibroblast RAT-iCell-C002, CCK-8, 48 hours
[15] = Homo sapiens, HT-1080, 48 h, HT-1080 cells, 48 h, CCK-8
[16] = Homo sapiens, CCC-ESF-1 cells, 48 h, CCK-8
[17] = Homo sapiens, IMR-90 cells, 48 h, CCK-8

Row | IC50 [3, 11] [mM] | IC50 ([7]; Mus musculus, RAW264.7, 24 h) [µM] | IC50 [3, 15] [mM] | IC50 ([3]; human fibrosarcoma cells HT-1080, CCK-8, 48 hours) [mM] | IC50 ([7]; 24 hours) [µM] | SMILES | IC50 (BHK-21 cells; [8]) [mM] | IC50 [1, 9] [mM] | IC50 [2, 10] [mM] | IC50 [4, 12] [mM] | IC50 [5, 13] [mM] | IC50 [6, 14] [mM] | IC50 (BHK-21 cells; 48 h, CCK-8) [mM] | IC50 ([1]; HFL1 cells, 48 h, CCK-8) [mM] | IC50 ([2]; LX-2, 48 h, LX-2 cells, CCK-8) [mM] | IC50 [4, 16] [mM] | IC50 [5, 17] [mM] | IC50 ([6]; RAT-iCell-C002 cells, CCK-8) [mM]
1 | 0.05 to 5 | 10 to 50 |  |  |  | O=C1c2c(n(Cc3cccc(F)c3)c3cc(F)ccc3c2=O)-c2cccn21 [Compound 491a, 6-Fluoro-4-(3-fluorobenzyl)-9H-pyrrolizino[1,2-b]quinoline-9,10(4H)-dione] | < 0.05 | 0.05 to 5 | 0.05 to 5 | 0.05 to 5 | 0.05 to 5 | 0.05 to 5 |  |  |  |  |  | 
2 |  | 1 to 10 | 0.05 to 5 |  |  | O=C1c2c(c(=O)c3ccccc3n2CCCCN2CCOCC2)-c2cccn21 [Compound 789a, 6-(4-Morpholinobutyl)-5H-pyrrolizino[2,1-b]quinoline-5,11(6H)-dione] |  |  |  |  |  |  | 0.05 to 5 | 0.05 to 5 | 0.05 to 5 | 0.05 to 5 | 0.05 to 5 | 0.05 to 5
3 |  | 1 to 10 | 0.05 to 5 |  |  | O=C1c2nc3ccccc3c(OCCCN3CCCCC3)c2-c2cccn21 [Compound 786b, 11-(3-(piperidin-1-yl)propoxy)-5H-pyrrolizino[2,1-b]quinolin-5-one] |  |  |  |  |  |  | 0.05 to 5 | 0.05 to 5 | 0.05 to 5 | 0.05 to 5 | 0.05 to 5 | 0.05 to 5
4 |  | 1 to 10 | 0.05 to 5 |  |  | O=C1c2nc3ccccc3c(OCc3ccc(-c4ccccc4)cc3)c2-c2cccn21 [Compound 796b, 11-([1,1′-biphenyl]-4-ylmethoxy)-5H-pyrrolizino[2,1-b]quinolin-5-one] |  |  |  |  |  |  | 0.05 to 5 | 0.05 to 5 | 0.05 to 5 | 0.05 to 5 | 0.05 to 5 | 0.05 to 5
5 |  | 1 to 10 | 0.05 to 5 |  |  | O=C1c2c(c(=O)c3ccccc3n2Cc2ccc(-c3ccccc3)cc2)-c2cccn21 [Compound 796a, 6-([1,1′-Biphenyl]-4-ylmethyl)-5H-pyrrolizino[2,1-b]quinoline-5,11(6H)-dione] |  |  |  |  |  |  | 0.05 to 5 | 0.05 to 5 | 0.05 to 5 | 0.05 to 5 | 0.05 to 5 | 0.05 to 5
6 |  |  |  | 5 to 20 | 1 to 10 | O=C1c2c(nc3c(C(F)(F)F)c(N4CCNCC4)ccc3c2OCc2ccc(Cl)cc2)-c2cccn21 [Compound 483b, 9-((4-chlorobenzyl)oxy)-6-(piperazin-1-yl)-5-(trifluoromethyl)-10H-pyrrolizino[1,2-b]quinolin-10-one] | 0.05 to 5 | 0.05 to 5 | 0.05 to 5 | 0.05 to 5 | 0.05 to 5 | 0.05 to 5 |  |  |  |  |  | 

Continued, compound first:

Row | SMILES | IC50 [3, 11] [mM] | IC50 ([7]; Mus musculus, RAW264.7, 24 h) [µM] | IC50 [3, 15] [mM] | IC50 ([3]; human fibrosarcoma cells HT-1080, CCK-8, 48 hours) [mM] | IC50 ([7]; 24 hours) [µM] | IC50 (BHK-21 cells; [8]) [mM] | IC50 [1, 9] [mM] | IC50 [2, 10] [mM] | IC50 [4, 12] [mM] | IC50 [5, 13] [mM] | IC50 [6, 14] [mM] | IC50 (BHK-21 cells; 48 h, CCK-8) [mM] | IC50 ([1]; HFL1 cells, 48 h, CCK-8) [mM] | IC50 ([2]; LX-2, 48 h, LX-2 cells, CCK-8) [mM] | IC50 [4, 16] [mM] | IC50 [5, 17] [mM] | IC50 ([6]; RAT-iCell-C002 cells, CCK-8) [mM]
7 | O=C1c2c(nc3cccc(F)c3c2OCc2ccc(Cl)cc2)-c2cccn21 [Compound 471b, 9-((4-chlorobenzyl)oxy)-8-fluoro-10H-pyrrolizino[1,2-b]quinolin-10-one] | 0.05 to 5 | 1 to 10 |  |  |  | 0.05 to 5 | 0.05 to 5 | 0.05 to 5 | 0.05 to 5 | 0.05 to 5 | 0.05 to 5 |  |  |  |  |  | 
8 | O=C1c2c(n(Cc3cccc(Cl)c3)c3cccc(C(F)(F)F)c3c2=O)-c2cccn21 [Compound 466a, 4-(3-Chlorobenzyl)-8-(trifluoromethyl)-9H-pyrrolizino[1,2-b]quinoline-9,10(4H)-dione] | 0.05 to 5 | 1 to 10 |  |  |  | 0.05 to 5 | 0.05 to 5 | < 0.05 | 0.05 to 5 | 0.05 to 5 | 0.05 to 5 |  |  |  |  |  | 
9 | O=C1c2c(n(Cc3ccc(Cl)cc3)c3cccc(F)c3c2=O)-c2cccn21 [Compound 471a, 4-(4-Chlorobenzyl)-8-fluoro-9H-pyrrolizino[1,2-b]quinoline-9,10(4H)-dione] | 0.05 to 5 | 0.1 to 1 |  |  |  | 0.05 to 5 | 0.05 to 5 | < 0.05 | 0.05 to 5 | 0.05 to 5 | 0.05 to 5 |  |  |  |  |  | 
10 | O=C1c2c(n(Cc3cccc(F)c3)c3cccc(F)c3c2=O)-c2cccn21 [Compound 475a, 8-Fluoro-4-(3-fluorobenzyl)-9H-pyrrolizino[1,2-b]quinoline-9,10(4H)-dione] | 5 to 20 | 1 to 10 |  |  |  | 0.05 to 5 | 0.05 to 5 | 0.05 to 5 | 0.05 to 5 | 0.05 to 5 | 0.05 to 5 |  |  |  |  |  | 
11 | N#Cc1cccc2c(OCc3cccc(F)c3)c3c(nc12)-c1cccn1C3=O [Compound 454b, 9-((3-fluorobenzyl)oxy)-10-oxo-10H-pyrrolizino[1,2-b]quinoline-5-carbonitrile] | 0.05 to 5 | 1 to 10 |  |  |  | 0.05 to 5 | 0.05 to 5 | 0.05 to 5 | 0.05 to 5 | 0.05 to 5 | 0.05 to 5 |  |  |  |  |  | 
12 | O=C1c2c(nc3cc(N4CCNCC4)c(OC(F)(F)F)cc3c2O)-c2cccn21 [Compound 409b, 9-hydroxy-6-(piperazin-1-yl)-7-(trifluoromethoxy)-10H-pyrrolizino[1,2-b]quinolin-10-one] | 0.05 to 5 | 1 to 10 |  |  |  | 0.05 to 5 | 0.05 to 5 | 0.05 to 5 | 0.05 to 5 | 0.05 to 5 | 0.05 to 5 |  |  |  |  |  | 
13 | O=C1c2c(nc3cc(N4CCNCC4)c(Cl)cc3c2O)-c2cccn21 [Compound 373b, 7-chloro-9-hydroxy-6-(piperazin-1-yl)-10H-pyrrolizino[1,2-b]quinolin-10-one] | 0.05 to 5 | 1 to 10 |  |  |  | 0.05 to 5 | 0.05 to 5 | 0.05 to 5 | 0.05 to 5 | 0.05 to 5 | 0.05 to 5 |  |  |  |  |  | 
14 | O=C1c2c(n(C(=O)c3ccco3)c3ccc(F)cc3c2=O)-c2cccn21 [Compound 150a, 7-Fluoro-4-(furan-2-carbonyl)-9H-pyrrolizino[1,2-b]quinoline-9,10(4H)-dione] | 0.05 to 5 | 1 to 10 |  |  |  | 0.05 to 5 | 0.05 to 5 | 0.05 to 5 | 0.05 to 5 | < 0.05 | 0.05 to 5 |  |  |  |  |  | 
15 | O=C1c2c(nc3cccc(Cl)c3c2OCc2ccccc2F)-c2cccn21 [Compound 480b, 8-chloro-9-((2-fluorobenzyl)oxy)-10H-pyrrolizino[1,2-b]quinolin-10-one] | 0.05 to 5 | 1 to 10 |  |  |  | 0.05 to 5 | 0.05 to 5 | 0.05 to 5 | 0.05 to 5 | 0.05 to 5 | 0.05 to 5 |  |  |  |  |  | 
16 | O=C1c2c(n(Cc3ccc(Cl)cc3)c3c(C(F)(F)F)c(N4CCNCC4)ccc3c2=O)-c2cccn21 [Compound 483a, 4-(4-Chlorobenzyl)-6-(piperazin-1-yl)-5-(trifluoromethyl)-9H-pyrrolizino[1,2-b]quinoline-9,10(4H)-dione] | 0.05 to 5 |  |  |  | 10 to 50 | < 0.05 | 0.05 to 5 | 0.05 to 5 | 0.05 to 5 | 0.05 to 5 | 0.05 to 5 |  |  |  |  |  | 
17 | O=C1c2c([nH]c3ccc(Cl)cc3c2=O)-c2cccn21 [Compound 180a, 7-Chloro-9H-pyrrolizino[1,2-b]quinoline-9,10(4H)-dione] | 0.05 to 5 | 1 to 10 |  |  |  | 20 to 100 | 0.05 to 5 | 0.05 to 5 | 0.05 to 5 | 0.05 to 5 | 0.05 to 5 |  |  |  |  |  | 
